The results in this text go back to patent publication US20130310379A1, “MODULATORS OF METHYL MODIFYING ENZYMES, COMPOSITIONS AND USES THEREOF” (CONSTELLATION PHARMACEUTICALS, priority 2010, published 2013).

Assay [1] addresses Y641N EZH2 (Homo sapiens, UniProt Q15910, Y641N). The assay is described as follows: Y641N EZH2 assay: performed as the EZH2 assay, using reconstituted H3K27Me2 oligonucleosomes as substrate. The format is biochemical. As for the experimental part: Assays were carried out by mixing rPRC2 together with biotinylated oligonucleosome substrates in the presence of the radio-labeled enzyme co-factor, S-adenosyl-L-methionine (^3H SAM) (Perkin Elmer) and monitoring the enzymatically mediated transfer of tritiated methyl groups from ^3H SAM to histone lysine residues. The amount of resulting tritated methylhistone product was measured by first capturing the biotinylated oligonuclesomes in streptavidin (SAV) coated FlashPlates (Perkin Elmer), followed by a wash step to remove un-reacted ^3H SAM, and then counting on a TopCount NXT 384 well plate scintillation counter (Perkin Elmer). The final assay conditions for EZH2 were as follows: 50 mM Tris Buffer pH 8.5, 1 mM DTT, 69 uM Brij-35 detergent, 5.0 mM MgCl2, 0.1 mg/mL BSA, 0.2 uM ^3H SAM, 0.2 uM biotinylated oligonucleosomes, 3.6 uM H3K27me3 peptide and 2 nM EZH2.
Compound IC50 measurements were obtained as follows: Compounds were first dissolved in 100% DMSO as 10 mM stock solutions. […] A 12.5 uL volume of the HMT enzyme, H3K27me3 peptide and oligonucleosome substrate in assay buffer was added to each well of the assay plate using a Multidrop Combi (ThermoFisher). Compounds were pre-incubated with the enzyme for 20 min, followed by initiation of the methyltransferase reaction by addition of 12.5 uL of 3H SAM in assay buffer (final volume=25 uL). The final concentrations of compounds ranged from a top default concentration of 80 uM down to 0.16 uM in ten 2-fold dilution steps. Reactions were carried out for 60 minutes and quenched with 20 uL per well of 1.96 mM SAH, 50 mM Tris PH 8.5, 200 mM EDTA. Stopped reactions were transferred to SAV coated Flashplates (Perkin Elmer), incubated for 120 min, washed with a plate washer, and then read on the TopCount NXT (1.0 min/well) to measure the amount of methylhistone product formed during the reaction. The amount of methylhistone product was compared with the amount of product formed in the 0% and 100% inhibition control wells allowing the calculation of % Inhibition in the presence of the individual compounds at various concentrations. IC50's were computed using a 4 parameter fit non-linear curve fitting software package (XLFIT, part of the database package, ActivityBase (IDBS)) where the four parameters were IC50, Hill slope, pre-transitional baseline (0% INH), and post-transitional baseline (100% INH); with the latter two parameters being fixed to zero and 100%, respectively, by default.

Assay [2] has as its target EZH2 (Homo sapiens, UniProt Q15910). The assay is described as follows: EZH2 assay: rPRC2 with biotinylated oligonucleosome substrates and 3H SAM, FlashPlate scintillation counting, IC50. Format: biochemical. The note with it: rPRC2, biotinylated oligonucleosome substrates, 3H SAM; read-out: EZH2 IC50. In outline: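 rPRC2 (2 nM EZH2) pre-incubated 20 min with compound (80 to 0.16 uM, ten 2-fold steps), then 60 min reaction with 0.2 uM 3H SAM, 0.2 uM biotinylated oligonucleosomes, 3.6 uM H3K27me3 peptide in Tris pH 8.5. SAH/EDTA quench; 4-parameter IC50 fit.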

Chain of Y641N EZH2 (Q15910 whole entry Y641N): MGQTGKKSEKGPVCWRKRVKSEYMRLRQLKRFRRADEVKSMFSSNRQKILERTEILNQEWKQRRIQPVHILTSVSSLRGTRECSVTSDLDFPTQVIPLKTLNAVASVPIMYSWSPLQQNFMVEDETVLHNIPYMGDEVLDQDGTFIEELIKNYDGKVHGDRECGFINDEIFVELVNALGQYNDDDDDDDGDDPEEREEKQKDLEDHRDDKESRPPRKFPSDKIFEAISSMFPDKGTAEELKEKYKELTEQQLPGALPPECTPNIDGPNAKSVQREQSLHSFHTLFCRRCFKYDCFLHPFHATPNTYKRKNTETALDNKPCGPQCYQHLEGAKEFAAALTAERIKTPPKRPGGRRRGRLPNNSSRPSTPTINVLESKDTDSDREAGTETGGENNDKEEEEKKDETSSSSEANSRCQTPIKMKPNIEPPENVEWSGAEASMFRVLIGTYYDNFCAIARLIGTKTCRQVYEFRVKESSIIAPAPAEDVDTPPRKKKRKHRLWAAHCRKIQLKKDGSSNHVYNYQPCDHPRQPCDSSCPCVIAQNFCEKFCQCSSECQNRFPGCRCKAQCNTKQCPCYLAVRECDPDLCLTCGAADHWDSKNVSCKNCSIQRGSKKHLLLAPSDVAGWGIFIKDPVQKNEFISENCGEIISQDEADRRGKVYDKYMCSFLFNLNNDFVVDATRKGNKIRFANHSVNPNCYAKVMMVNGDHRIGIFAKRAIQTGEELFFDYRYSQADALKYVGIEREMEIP
Chain of Y641N EZH2 (O75530 whole entry partner): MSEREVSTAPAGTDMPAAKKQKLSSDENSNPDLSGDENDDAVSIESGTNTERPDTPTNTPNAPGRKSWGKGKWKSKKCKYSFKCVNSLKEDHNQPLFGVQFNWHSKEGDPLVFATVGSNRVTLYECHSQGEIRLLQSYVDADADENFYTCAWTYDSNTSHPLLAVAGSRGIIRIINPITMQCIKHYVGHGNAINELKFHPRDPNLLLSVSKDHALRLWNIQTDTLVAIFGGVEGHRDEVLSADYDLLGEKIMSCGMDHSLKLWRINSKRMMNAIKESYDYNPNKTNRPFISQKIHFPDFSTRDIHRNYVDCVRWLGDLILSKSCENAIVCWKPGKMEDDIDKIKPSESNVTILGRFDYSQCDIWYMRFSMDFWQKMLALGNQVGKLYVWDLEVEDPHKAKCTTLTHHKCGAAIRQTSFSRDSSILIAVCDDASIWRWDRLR
Chain of Y641N EZH2 (Q15022 whole entry partner): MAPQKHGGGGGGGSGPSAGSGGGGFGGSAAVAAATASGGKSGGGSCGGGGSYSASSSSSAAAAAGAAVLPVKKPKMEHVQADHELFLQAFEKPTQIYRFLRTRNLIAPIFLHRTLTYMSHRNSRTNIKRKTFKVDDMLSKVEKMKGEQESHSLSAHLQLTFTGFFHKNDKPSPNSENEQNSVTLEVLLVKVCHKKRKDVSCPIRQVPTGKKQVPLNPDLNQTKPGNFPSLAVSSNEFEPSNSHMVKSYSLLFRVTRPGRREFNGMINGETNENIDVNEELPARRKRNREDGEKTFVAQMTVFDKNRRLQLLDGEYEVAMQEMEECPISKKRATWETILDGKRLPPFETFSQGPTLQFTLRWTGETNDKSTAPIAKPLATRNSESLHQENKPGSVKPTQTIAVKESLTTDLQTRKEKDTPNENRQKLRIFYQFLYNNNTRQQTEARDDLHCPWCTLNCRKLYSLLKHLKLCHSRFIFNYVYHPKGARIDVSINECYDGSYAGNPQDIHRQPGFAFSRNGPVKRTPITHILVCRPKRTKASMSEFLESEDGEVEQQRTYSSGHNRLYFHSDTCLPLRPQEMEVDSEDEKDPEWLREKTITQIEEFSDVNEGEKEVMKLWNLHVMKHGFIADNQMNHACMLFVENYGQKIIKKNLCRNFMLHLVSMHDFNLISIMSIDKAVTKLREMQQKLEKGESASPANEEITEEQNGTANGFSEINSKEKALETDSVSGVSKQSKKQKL
Chain of EZH2 (Q15910 whole entry): as the sequence (Q15910 whole entry Y641N) above, with N641Y counted along it
Chain of EZH2 (O75530 whole entry partner): as the sequence (O75530 whole entry partner) above
Chain of EZH2 (Q15022 whole entry partner): as the sequence (Q15022 whole entry partner) above

The IC50 is the concentration that inhibits the measured activity by half. As for `CC1(C)CC(/C=C/c2ccc(Oc3cccc(-c4ccncn4)c3C#N)c(Cl)c2)CC(C)(C)N1` [Compound I-592, (E)-2-(2-chloro-4-(2-(2,2,6,6-tetramethylpiperidin-4-yl)vinyl)phenoxy)-6-(pyrimidin-4-yl)benzonitrile], the IC50 in assay [1] was 5 to 20 µM; in assay [2], under 5 µM.
